The record followed here is ChEMBL document CHEMBL1146955, “A novel series of arylsulfonylthiophene-2-carboxamidine inhibitors of the complement component C1s” (Bioorg Med Chem Lett, 2006).

The target in the first experiment is Trypsin (Homo sapiens, UniProt P07477+P07478+P35030). Briefly: Inhibition of trypsin. Type of experiment: protein assay.
In turn, `CSc1sc(C(=N)N)cc1S(=O)(=O)c1cc(Br)c2c(c1)ncn2Cc1cc(F)ccc1F` gave a Ki of 1400 nM.

Another experiment concerns the target Urokinase-type plasminogen activator (Homo sapiens, UniProt P00749). Briefly: Inhibition of uPA.
In turn, `CSc1sc(C(=N)N)cc1S(=O)(=O)c1cc(Br)c2c(c1)ncn2Cc1cc(F)ccc1F` came in with an inhibition constant Ki of over 10000 nM.

The target of a further experiment is Plasminogen (Homo sapiens, UniProt P00747). Briefly: Inhibition of plasmin.
Sequence of Plasminogen (P00747 97-580 limits assumed): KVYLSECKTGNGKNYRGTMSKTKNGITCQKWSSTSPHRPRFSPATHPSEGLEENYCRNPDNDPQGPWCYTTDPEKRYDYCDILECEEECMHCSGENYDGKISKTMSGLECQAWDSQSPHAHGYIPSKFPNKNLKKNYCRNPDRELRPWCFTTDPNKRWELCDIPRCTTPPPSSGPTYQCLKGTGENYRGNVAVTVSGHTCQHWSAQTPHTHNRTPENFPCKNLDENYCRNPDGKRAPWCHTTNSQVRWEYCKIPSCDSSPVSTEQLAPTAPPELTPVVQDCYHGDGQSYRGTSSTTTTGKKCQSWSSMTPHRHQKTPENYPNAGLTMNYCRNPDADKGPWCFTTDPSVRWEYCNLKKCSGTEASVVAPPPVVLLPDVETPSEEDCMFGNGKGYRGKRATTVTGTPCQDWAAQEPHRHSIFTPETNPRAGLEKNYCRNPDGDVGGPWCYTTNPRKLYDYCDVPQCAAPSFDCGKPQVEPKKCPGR
Sequence of Plasminogen (P00747 581-810 limits assumed): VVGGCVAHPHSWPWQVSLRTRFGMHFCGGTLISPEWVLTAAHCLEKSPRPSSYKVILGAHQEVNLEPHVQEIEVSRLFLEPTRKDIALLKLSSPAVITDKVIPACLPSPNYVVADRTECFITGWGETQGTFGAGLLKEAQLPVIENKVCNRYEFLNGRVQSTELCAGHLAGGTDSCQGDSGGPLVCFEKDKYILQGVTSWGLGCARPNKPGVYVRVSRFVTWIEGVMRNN
`CSc1sc(C(=N)N)cc1S(=O)(=O)c1cc(Br)c2c(c1)ncn2Cc1cc(F)ccc1F` returned an inhibition constant Ki of over 13000 nM.

Another experiment addresses Prothrombin (Homo sapiens, UniProt P00734). Description: Inhibition of thrombin.
The compound `CSc1sc(C(=N)N)cc1S(=O)(=O)c1cc(Br)c2c(c1)ncn2Cc1cc(F)ccc1F` returned an inhibition constant (Ki) of over 15000 nM.

Another experiment addresses T1, Complement C1s subcomponent (Homo sapiens, UniProt P09871).
T1 sequence (P09871 whole entry): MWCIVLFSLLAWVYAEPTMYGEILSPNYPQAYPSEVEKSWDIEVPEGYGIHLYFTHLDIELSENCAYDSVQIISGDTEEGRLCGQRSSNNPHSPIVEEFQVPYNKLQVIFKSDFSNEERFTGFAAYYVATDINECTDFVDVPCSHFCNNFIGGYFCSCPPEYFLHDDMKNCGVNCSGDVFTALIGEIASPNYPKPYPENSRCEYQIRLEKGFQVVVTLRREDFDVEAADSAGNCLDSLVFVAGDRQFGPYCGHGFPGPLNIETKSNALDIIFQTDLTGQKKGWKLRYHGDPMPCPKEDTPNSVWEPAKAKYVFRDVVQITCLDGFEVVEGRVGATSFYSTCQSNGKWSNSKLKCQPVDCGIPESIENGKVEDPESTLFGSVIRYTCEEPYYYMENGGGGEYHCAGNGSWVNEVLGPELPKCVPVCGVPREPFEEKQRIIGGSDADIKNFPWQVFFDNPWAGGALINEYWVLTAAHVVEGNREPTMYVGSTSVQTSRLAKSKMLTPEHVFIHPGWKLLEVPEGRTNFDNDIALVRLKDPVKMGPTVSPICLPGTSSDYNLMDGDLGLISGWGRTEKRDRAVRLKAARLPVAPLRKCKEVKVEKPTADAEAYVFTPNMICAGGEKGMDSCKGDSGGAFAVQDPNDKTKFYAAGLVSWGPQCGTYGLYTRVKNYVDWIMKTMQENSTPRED
Briefly: Inhibition of C1S.
In turn, `CSc1sc(C(=N)N)cc1S(=O)(=O)c1ccc2c(c1)ncn2Cc1ccccn1` returned an inhibitory constant (Ki) of 580 nM.
On to `CSc1sc(C(=N)N)cc1S(=O)(=O)c1cc(Br)c2c(c1)ncn2[C@@H](C)c1ccccc1`, for which the affinity corresponds to a Ki of 330 nM.
As to `C=CCn1cnc2cc(S(=O)(=O)c3cc(C(=N)N)sc3SC)cc(Br)c21`, the Ki worked out at 70 nM.
Still for that read-out and setting: for `CSc1sc(C(=N)N)cc1S(=O)(=O)c1cc(Br)c2ncn(C)c2c1` the value was 330 nM; for `CSc1sc(C(=N)N)cc1S(=O)(=O)c1cc(Br)c2c(c1)ncn2Cc1cc([N+](=O)[O-])ccc1F`, 30 nM; for `CSc1sc(C(=N)N)cc1S(=O)(=O)c1ccccc1`, 750 nM.
The compound `CSc1sc(C(=N)N)cc1S(=O)(=O)c1cc(Br)c2c(c1)ncn2CC=C(C)C` gave a Ki of 50 nM.
The compound `CSc1sc(C(=N)N)cc1S(=O)(=O)c1cc(Br)c2ncn(Cc3c(F)cccc3F)c2c1` returned an inhibition constant (Ki) of 170 nM.
`CSc1sc(C(=N)N)cc1S(=O)(=O)c1cc(Cl)c2c(c1)ncn2Cc1c(F)cccc1F` displayed a Ki of 100 nM.
Regarding `CSc1sc(C(=N)N)cc1S(=O)(=O)c1cc(Br)c2c(c1)ncn2Cc1ccccc1`, the Ki amounted to 30 nM.
Turning to `CSc1sc(C(=N)N)cc1S(=O)(=O)c1cc(Br)c2nc[nH]c2c1`, the Ki was determined as 400 nM.
On the same count and under the same terms, then `CSc1sc(C(=N)N)cc1S(=O)(=O)c1cc(Br)c2c(c1)ncn2C`, with 400 nM; and `CSc1sc(C(=N)N)cc1S(=O)(=O)c1cc(Br)c2ncn(Cc3cc(F)ccc3F)c2c1`, with 240 nM; and `CSc1sc(C(=N)N)cc1S(=O)(=O)c1cc(Br)c2ncn(CC=C(C)C)c2c1`, with 200 nM.
Same read-out and setting: then `CSc1sc(C(=N)N)cc1S(=O)(=O)c1cc(Br)c2ncn(Cc3ccccc3)c2c1`, with 400 nM; and `CSc1sc(C(=N)N)cc1S(=O)(=O)c1cc(Cl)c2ncn(Cc3c(F)cccc3F)c2c1`, with 100 nM.
Same read-out and setting: for `CSc1sc(C(=N)N)cc1S(=O)(=O)c1cccs1` the value was 2240 nM; for `CSc1sc(C(=N)N)cc1S(=O)(=O)c1cc(Br)c2c(c1)ncn2Cc1c(F)cccc1F`, 40 nM.
In turn, `CSc1sc(C(=N)N)cc1S(=O)(=O)c1cc(Br)c2c(c1)ncn2Cc1cc(F)ccc1F` registered a Ki of 10 nM.
Same read-out and setting: for `CSc1sc(C(=N)N)cc1S(=O)(=O)c1cc(Br)c2c(c1)ncn2Cc1c(Cl)cccc1Cl` the value was 20 nM; for `CSc1sc(C(=N)N)cc1S(=O)(=O)c1cc(Br)c2ncn(Cc3c(Cl)cccc3Cl)c2c1`, 160 nM; for `CSc1sc(C(=N)N)cc1S(=O)(=O)Cc1ccccc1`, 2000 nM.
Compound `CSc1sc(C(=N)N)cc1S(=O)(=O)c1ccccn1` returned an inhibitory constant (Ki) of 2290 nM.
Still for that read-out and setting: for `CSc1sc(C(=N)N)cc1S(=O)(=O)C(C)C` the value was 11000 nM; for `CSc1sc(C(=N)N)cc1S(=O)(=O)c1cc(Br)c2c(c1)ncn2-c1ccccc1`, 310 nM; for `CSc1sc(C(=N)N)cc1S(=O)(=O)c1ccc2ncn(Cc3ccccc3)c2c1`, 420 nM.
The same measure, in the same setting: then `CSc1sc(C(=N)N)cc1S(=O)(=O)c1cc(Br)c2c(c1)ncn2[C@H](C)c1ccccc1`, with 380 nM; and `CSc1sc(C(=N)N)cc1S(=O)(=O)c1nccn1C`, with 1880 nM; and `CSc1sc(C(=N)N)cc1S(=O)(=O)c1ccc2c(c1)ncn2Cc1ccccc1`, with 400 nM.
For `CSc1sc(C(=N)N)cc1S(=O)(=O)c1ccoc1C`, the Ki turned out to be 1790 nM.
In turn, `CSc1sc(C(=N)N)cc1S(=O)(=O)c1ccc2ccccc2c1` yielded an inhibition constant Ki of 410 nM.
For the compound `C=CCn1cnc2c(Br)cc(S(=O)(=O)c3cc(C(=N)N)sc3SC)cc21`, the Ki amounted to 210 nM.
Same read-out and setting: for `CSc1sc(C(=N)N)cc1S(=O)(=O)c1cc(Br)c2ncn(Cc3cc([N+](=O)[O-])ccc3F)c2c1` the value was 170 nM; for `CSc1sc(C(=N)N)cc1S(=O)(=O)c1cc(Br)c2ncn(-c3ccccc3)c2c1`, 180 nM.

For the next experiment, the target named is Tissue-type plasminogen activator (Homo sapiens, UniProt P00750). Briefly: Inhibition of tPA.
Sequence of Tissue-type plasminogen activator (P00750 whole entry): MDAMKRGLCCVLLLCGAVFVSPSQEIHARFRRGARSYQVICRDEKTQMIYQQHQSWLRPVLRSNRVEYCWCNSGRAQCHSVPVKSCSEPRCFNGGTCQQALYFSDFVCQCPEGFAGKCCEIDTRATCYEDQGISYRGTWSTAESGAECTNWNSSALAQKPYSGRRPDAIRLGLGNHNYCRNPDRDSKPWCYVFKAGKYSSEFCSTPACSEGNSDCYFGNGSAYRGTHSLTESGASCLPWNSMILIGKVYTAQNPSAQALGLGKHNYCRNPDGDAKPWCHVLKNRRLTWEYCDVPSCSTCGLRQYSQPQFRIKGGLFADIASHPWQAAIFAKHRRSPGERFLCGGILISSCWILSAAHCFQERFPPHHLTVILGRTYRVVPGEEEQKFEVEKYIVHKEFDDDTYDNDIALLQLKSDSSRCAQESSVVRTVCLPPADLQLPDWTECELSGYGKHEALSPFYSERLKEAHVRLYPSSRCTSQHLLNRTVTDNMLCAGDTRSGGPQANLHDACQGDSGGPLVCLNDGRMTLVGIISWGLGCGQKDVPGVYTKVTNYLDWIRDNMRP
For `CSc1sc(C(=N)N)cc1S(=O)(=O)c1cc(Br)c2c(c1)ncn2Cc1cc(F)ccc1F`, the Ki was over 10000 nM.

The target of another experiment is Coagulation factor X (Homo sapiens, UniProt P00742). Description: Inhibition of F10a.
Sequence of Coagulation factor X (P00742 41-179 limits assumed): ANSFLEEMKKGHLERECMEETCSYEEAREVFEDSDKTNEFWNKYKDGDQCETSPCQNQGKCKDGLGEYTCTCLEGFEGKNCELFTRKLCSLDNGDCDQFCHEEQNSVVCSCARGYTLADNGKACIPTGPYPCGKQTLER
Sequence of Coagulation factor X (P00742 235-488 limits assumed): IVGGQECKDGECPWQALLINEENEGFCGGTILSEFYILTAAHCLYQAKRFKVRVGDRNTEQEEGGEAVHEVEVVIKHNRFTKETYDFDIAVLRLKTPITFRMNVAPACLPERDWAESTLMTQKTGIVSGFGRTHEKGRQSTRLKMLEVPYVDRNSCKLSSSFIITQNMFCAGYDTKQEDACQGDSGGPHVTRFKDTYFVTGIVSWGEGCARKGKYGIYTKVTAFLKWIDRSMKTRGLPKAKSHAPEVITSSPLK
Take `CSc1sc(C(=N)N)cc1S(=O)(=O)c1cc(Br)c2c(c1)ncn2Cc1cc(F)ccc1F`: the Ki came to 11400 nM.

One may read the Ki as the dissociation constant of the complex between target and ligand, obtained from inhibition or displacement. The low end stands for a stronger hold on the target, the high end for a looser hold on the target.
